Assay results published in patent publication US20260174744A1, “COMPOUNDS, COMPOSITIONS, AND METHODS OF TREATING RNA VIRAL INFECTIONS” (priority 2024, published 2026).

Legend:
Huh-luc/neo-ET cells = experiment: XTT cell viability assay, Huh-luc/neo-ET; assay type: cell-based; details: 72 hours, read-out: HCV 1b - TC50
Protocol: (§1) Twenty-four hours after seeding the cells, the cell culture supernatant was removed from each well and replaced with 175 μL fresh complete medium minus G418. Test compounds were evaluated at a high-test concentration of 10 μM and five serial half-logarithmic dilutions in three biological replicates. In three biological replicates, Sofosbuvir was evaluated in parallel at a high-test concentration of 1 μM and five serial half-logarithmic dilutions. Compounds were first serially diluted in DMSO to 400× of each final in-well concentration. An intermediate 8× solution was prepared in a complete medium and then added to the cells in a volume of 25 μL per well. A complete medium containing an equal percentage of DMSO (v/v) was added to vehicle-treated control cells. The final DMSO concentration was 0.25% (v/v) for all samples. The cells were incubated for an additional 72 hours at 37° C./5% CO2, then HCV replication was measured by luciferase activity and cell viability was assessed in parallel using an XTT colorimetric assay.
(§2) Huh-luc/neo-ET cell viability was measured at 72 hours after treatment using the tetrazolium dye XTT (2,3-bis(2-methoxy-4-nitro-5-sulfophenyl)-5[(phenylamino)carbonyl]-2H-tetrazolium hydroxide). Mitochondrial enzymes of metabolically active cells metabolize XTT-tetrazolium to a soluble formazan product. XTT solution was prepared fresh at 1 mg/mL in DMEM. Phenazine methosulfate (PMS) solution was prepared at 0.15 mg/mL in PBS and stored in the dark at −20° C. An XTT/PMS stock was prepared immediately before use by adding 40 μL of PMS per ml of XTT solution. Fifty microliters (50 μL) XTT/PMS were added per well, and the cells were incubated for 4 hours at 37° C. The cell culture plates were then sealed with adhesive plate sealers and shaken gently or inverted several times to mix the soluble formazan product. The formazan product was measured spectrophotometrically by absorbance at 450/650 nm on a Vmax plate reader (Molecular Devices). The raw data in Softmax Pro 5.4.2 software was imported into Microsoft Excel for further analysis. Data are presented as absorbance values (450/650 nm) or the percentage of viable cells relative to vehicle-treated control (mean+1−standard deviation, n=3 biological replicates from one independent experiment).

MRC-5 cells = experiment: Toxicity XTT in MRC-5 (229E cytoprotection assay); details: read-out: CoV229E - TC50; MRC-5; XTT; 6 days
HCV 1b = experiment: microbe, parasite or virus in culture; assay type: cell-based; details: for HCV 1b - percent effect: @ 10 μM
[1] = XTT cell viability assay, Huh-luc/neo-ET; assay type: cell-based; details: human, Huh-luc/neo-ET cells, read-out: HCV 1b - TC50
Protocol: as §1, §2

CoV229E = experiment: Anti-Coronavirus 229E cytoprotection assay, MRC-5; assay type: cell-based; details: Human coronavirus 229E, MRC5, 6 days, XTT
[2] = tested on: MCF7 wild-type cell lines; experiment: MCF7 growth inhibition assay (Cell Titre Glo 2.0); assay type: cell-based; details: Homo sapiens, 120 hours, read-out: MCF-7 IC50
Protocol: The growth inhibition properties of inhibitors on MCF7 wild-type cell lines were evaluated using the Cell Titre Glo 2.0 cell viability reagent. The assay utilized 384-well black clear bottom plates with 20 μl of MCF7 wild-type cell suspension mixed with reference/test compounds and 20 μl of Cell Titre Glo 2.0 reagent. Cells were seeded at a density of 1000 cells/well in DMEM High Glucose culture media+10% Fetal Bovine Serum (FBS). Staurosporine and Camptothecin served as positive controls for confirming cytotoxicity at a concentration of 30 μM, and vehicle control of 1% DMSO was used to standardize conditions across all test points. The assay and culture media both contained 1% DMSO. […] The incubation period for the assay was set at 120 hours, after which growth inhibition was assessed. Using a multi-mode reader, the assay readout was based on luminescence measured in Relative Light Units (RLUs). The viability luminescence signal was monitored continually from the same wells over an extended period, allowing for detailed analysis of cell viability. […]
Cells were maintained and seeded in 384 […] plates, maintaining 1000 cells/well. […] This was followed by the addition of CTG reagent as per the kit's instruction protocol for 30 minutes and RLU data to be recorded. Post plate read data to be analyzed using GraphPad Prism for software IC50 value generation. […]

[3] = Toxicity XTT in MRC-5 (229E cytoprotection assay); details: human
Norovirus Norwalk Virus = experiment: Norwalk virus CPE assay, HG23 (Method 6); assay type: cell-based
Description: The antiviral assays were cell line based and consisted in transfecting each of the viruses tested in a compatible cell line. Upon infection and after drug treatment, viral survival and cell toxicity were reported from the readout of three different assays: cytopathic effect (CPE), viral yield reduction (VYR), or immunofluorescence (IF). A breakdown of the results obtained can be found in Table 3 in which EC50 values have been converted to account for variations in FBS concentrations across assays.
Compounds were tested in an assay medium containing 2% fetal bovine serum (FBS). Test compounds were added to cells prior to infection with virus at a multiplicity of infection (MOI) sufficient to induce visible cytopathic effect (CPE). […] Additionally, the EC90 was defined as the concentration required to achieve a 1 log10 reduction in viral titer. Dose-response curves depicting viral CPE (red line) and compound cytotoxicity (purple line) were generated to support these analyses.

[4] = Protein binding in FBS, rapid equilibrium dialysis (RED); details: 10% FBS (text/footnote)

Row | Compound | CC50 (Huh-luc/neo-ET cells) [µM] | CC50 (MRC-5 cells) [µM] | other results
1 | O=[N+]([O-])c1cccc2nc(-c3ccc(F)cc3)n(Cc3ccc(OCCN4CCCCC4)cc3)c12 [MCAA-12] | > 10 | > 5 | 
2 | Fc1ccc(-c2cc3sccc3n2Cc2ccc(OCCC3CCCCC3)cc2)cc1 [MCAA-07] | > 10 | > 5 | HCV 1b - percent effect (HCV 1b): 30% @ 10 μM
3 | O=C(O)c1ccc(-c2c(CC3CCCC3)c3ccc(F)cc3n2Cc2ccc(OCCN3CCCCC3)cc2)cc1 [MCAA-02] | > 10 | > 5 | 
4 | CC(C)OC(=O)[C@H](C)N[P@](=O)(OC[C@H]1O[C@@H](n2ccc(=O)[nH]c2=O)[C@](C)(F)[C@@H]1O)Oc1ccccc1 [Sofosbuvir, reference compound] | > 1 |  | 
5 | Nc1cccc2nc(-c3ccc(F)cc3)n(Cc3ccc(OCCC4CCCCC4)cc3)c12 [MCAA-09] | > 10 | > 5 | 
6 | COc1ccc(-c2c(Cc3ccc(OCCC4CCCCC4)cc3)c3ccc(OC)cc3n2C)cc1 [MCAA-05] | > 10 | > 5 | 
7 | O=[N+]([O-])c1cccc2nc(-c3ccc(F)cc3)n(Cc3ccc(OCCC4CCCCC4)cc3)c12 [MCAA-14] | > 10 | > 5 | HCV 1b - percent effect (HCV 1b): 34% @ 10 μM
8 | O=[N+]([O-])c1cccc2c1nc(-c1ccc(F)cc1)n2Cc1ccc(OCCC2CCCCC2)cc1 [MCAA-15] | > 10 | > 5 | HCV 1b - percent effect (HCV 1b): 38% @ 10 μM
9 | COc1ccc(-c2c(Cc3ccc(OCCN4CCCCC4)cc3)c3ccc(OC)cc3n2C)cc1 [MCAA-01] |  |  | EC50 (HCV 1b; Hepatitis C virus, Huh-luc/neo-ET replicon, 72 hours, luciferase): 3.61 µM; CC50 at 72 h [1]: > 10 µM; EC50 (CoV229E): 1880 nM; IC50 [2]: > 10 µM; CC50 at 6 days [3]: > 5 µM
10 | Nc1cccc2c1nc(-c1ccc(F)cc1)n2Cc1ccc(OCCN2CCCCC2)cc1 [MCAA-10] | > 10 | > 5 | 
11 | O=C(O)c1ccc(-c2c(CC3CCCC3)c3ccc(F)cc3n2Cc2ccc(OCCC3CCCCC3)cc2)cc1 [MCAA-03] | > 10 | 2.47 | 
12 | CCC(CC)COC(=O)[C@H](C)N[P@](=O)(OC[C@H]1O[C@@](C#N)(c2ccc3c(N)ncnn23)[C@H](O)[C@@H]1O)Oc1ccccc1 [Remdesivir, reference compound] |  | > 1 | 
13 | Nc1cccc2c1nc(-c1ccc(F)cc1)n2Cc1ccc(OCCC2CCCCC2)cc1 [MCAA-11] | 5.82 | > 5 | 
14 | Nc1cccc2nc(-c3ccc(F)cc3)n(Cc3ccc(OCCN4CCCCC4)cc3)c12 [MCAA-08] | > 10 | > 5 | 
15 | Fc1ccc(-c2cc3sccc3n2Cc2ccc(OCCN3CCCCC3)cc2)cc1 [MCAA-06] | > 10 | 1.53 | 
16 | Cc1c(-c2ccc(O)cc2)n(Cc2ccc(OCCC3CCCCC3)cc2)c2ccc(O)cc12 [MCAA-04] | > 10 | 2.7 | 
17 | O=[N+]([O-])c1cccc2c1nc(-c1ccc(F)cc1)n2Cc1ccc(OCCN2CCCCC2)cc1 [MCAA-13] | > 10 | > 5 | 
18 | Cc1c(-c2ccc(O)cc2)n(Cc2ccc(OCCN3CCCCC3)cc2)c2ccc(O)cc12 [Pipendoxifene] |  | > 1 | percent effect printed in EC50 column (Norovirus Norwalk Virus; 2% FBS, @ 5 μM): 31% @; percent effect printed in Corrected EC50 column (Norovirus Norwalk Virus; @ 1.25 μM (concentration corrected for 2% FBS)): 31% @ 1.25; unbound fraction [4]: 5%
